Source: patent US20090137664A1, “SAURURUS CERNUUS COMPOUNDS THAT INHIBIT CELLULAR RESPONSES TO HYPOXIA” (priority 2003, published 2009)

What was measured:
HIF-1α protein = test: Western blot, hypoxic induction of nuclear HIF-1α protein in T47D cells; type: cell-based, human; conditions: T47D nuclear extract, hypoxia 4 hr
Procedure: Due to the low abundance of HIF-1α protein in whole cell extract, nuclear extract is prepared and the level of HIF-1α protein in the nuclear extract determined by Western blot. Briefly, exponentially grown T47D cells are exposed to compound 2 for 30 minutes. […] Nuclear extracts are prepared from control and treated cells, separated on a SDS/PAGE gel, the separated proteins transferred to a nitrocellulose membrane, incubated with the primary antibodies (anti-HIF-1α, and anti-HIF-1β monoclonal antibodies, Novus Biologicals), secondary antibody biotinylated anti-mouse immunoglobulin G and Vectastain ABC reagent (Vector Laboratories), and developed using ECL reagents (Amersham Biosciences). […] No change in HIF-1β protein level is observed across the treatments. It is reasonable to conclude that the selectivity of compound 2 towards hypoxia-activated HIF-1 is caused by selective blockade of the hypoxic induction of HIF-1 protein.
To investigate the mechanism of action, the effects of these compounds on hypoxic stabilization of HIF-1α protein are examined in T47D cells using Western blot.

EKVX = test: NCI in vitro cell line screen (SRB), Non-Small Cell Lung Cancer EKVX; type: cell-based
Procedure: (§1) For exemplary purposes, an embodiment of the present invention was tested for activity with respect to certain cancer cell lines. The following Tables show results from in vitro 60-cell line antitumor testing from the US National Cancer Institute Developmental Therapeutics Program (NCI-DTP) on compound 2. The testing was in connection with the NCI's In Vitro Cell Line Screening Project (IVCLSP). Detailed information regarding the experiments and their interpretation is available from the NCI.

NCI-H226 = test: NCI in vitro cell line screen (SRB), Non-Small Cell Lung Cancer NCI-H226; type: cell-based
Procedure: as §1

SK-MEL-5 = test: NCI in vitro cell line screen (SRB), Melanoma SK-MEL-5; type: cell-based
Procedure: as §1

UACC-257 = test: NCI in vitro cell line screen (SRB), Melanoma UACC-257; type: cell-based
Procedure: as §1

UACC-62 = test: NCI in vitro cell line screen (SRB), Melanoma UACC-62; type: cell-based
Procedure: as §1

786-0 = test: NCI in vitro cell line screen (SRB), Renal Cancer 786-0; type: cell-based
Procedure: as §1

ACHN = test: NCI in vitro cell line screen (SRB), Renal Cancer ACHN; type: cell-based
Procedure: as §1

RXF 393 = test: NCI in vitro cell line screen (SRB), Renal Cancer RXF 393; type: cell-based
Procedure: as §1

MDA-MB-435 = test: NCI in vitro cell line screen (SRB), Breast Cancer MDA-MB-435; type: cell-based
Procedure: as §1

HIF-1 = test: pTK-HRE3-luc reporter assay, hypoxia-induced HIF-1 activation in T47D cells; conditions: Homo sapiens, T47D, read-out: IC50, inhibition of hypoxic activation of HIF-1
[1] = Homo sapiens, read-out: LC50 (the source's name)

In the case of COc1ccc([C@@H](O)[C@@H](C)Oc2ccc([C@H]3O[C@H](c4ccc(O[C@H](C)[C@H](O)c5ccc6c(c5)OCO6)c(OC)c4)[C@H](C)[C@H]3C)cc2OC)cc1OC [Compound 2, manassantin B], the “hypoxic induction of HIF-1α protein” value (HIF-1α protein) is reported as “specifically inhibits”, the TGI (EKVX) is reported as 8.25E−5 Molar and the GI50 (EKVX; Homo sapiens) is reported as 2.51 µM. The CC50 (EKVX; [1]) was greater than 100 µM, the “Mean Optical Densities” value (EKVX; Log10 Concentration −4.0 Molar) was 0.970 and the “Percent Growth” value (EKVX; Log10 Concentration −4.0 Molar) was −2%. For the same compound, the “Mean Optical Densities” value (EKVX; Log10 Concentration −5.0 Molar) was 1.180, the “Percent Growth” value (EKVX; Log10 Concentration −5.0 Molar) was 25% and the “Mean Optical Densities” value (EKVX; Log10 Concentration −6.0 Molar) was 1.479. The “Percent Growth” value (EKVX; Log10 Concentration −6.0 Molar) was 66%, the “Mean Optical Densities” value (EKVX; Log10 Concentration −7.0 Molar) was 1.478 and the “Percent Growth” value (EKVX; Log10 Concentration −7.0 Molar) was 66%. For the same compound, the “Mean Optical Densities” value (EKVX; Log10 Concentration −8.0 Molar) was 1.447, the “Percent Growth” value (EKVX; Log10 Concentration −8.0 Molar) was 62% and the TGI (NCI-H226) was 1.77E−5 Molar. The GI50 (NCI-H226; Homo sapiens) was 0.483 µM, the LC50 (concentration killing 50% of cells) (NCI-H226; Homo sapiens) was greater than 100 µM and the “Mean Optical Densities” value (NCI-H226; Log10 Concentration −4.0 Molar) was 0.559. For the same compound, the “Percent Growth” value (NCI-H226; Log10 Concentration −4.0 Molar) was −16%, the “Mean Optical Densities” value (NCI-H226; Log10 Concentration −5.0 Molar) was 0.678 and the “Percent Growth” value (NCI-H226; Log10 Concentration −5.0 Molar) was 5%. The “Mean Optical Densities” value (NCI-H226; Log10 Concentration −6.0 Molar) was 0.765, the “Percent Growth” value (NCI-H226; Log10 Concentration −6.0 Molar) was 36% and the “Mean Optical Densities” value (NCI-H226; Log10 Concentration −7.0 Molar) was 0.885. The “Percent Growth” value (NCI-H226; Log10 Concentration −7.0 Molar) was 79%, the “Mean Optical Densities” value (NCI-H226; Log10 Concentration −8.0 Molar) was 0.822 and the “Percent Growth” value (NCI-H226; Log10 Concentration −8.0 Molar) was 57%. For the same compound, the TGI (SK-MEL-5) was 1.85E−6 Molar, the GI50 (SK-MEL-5; Homo sapiens) was less than 0.01 µM and the CC50 (SK-MEL-5; [1]) was 9.04 µM. For the same compound, the “Mean Optical Densities” value (SK-MEL-5; Log10 Concentration −4.0 Molar) was 0.097, the “Percent Growth” value (SK-MEL-5; Log10 Concentration −4.0 Molar) was −79% and the “Mean Optical Densities” value (SK-MEL-5; Log10 Concentration −5.0 Molar) was 0.222. For the same compound, the “Percent Growth” value (SK-MEL-5; Log10 Concentration −5.0 Molar) was −53%, the “Mean Optical Densities” value (SK-MEL-5; Log10 Concentration −6.0 Molar) was 0.771 and the “Percent Growth” value (SK-MEL-5; Log10 Concentration −6.0 Molar) was 19%. The “Mean Optical Densities” value (SK-MEL-5; Log10 Concentration −7.0 Molar) was 1.053, the “Percent Growth” value (SK-MEL-5; Log10 Concentration −7.0 Molar) was 38% and the “Mean Optical Densities” value (SK-MEL-5; Log10 Concentration −8.0 Molar) was 0.980. The “Percent Growth” value (SK-MEL-5; Log10 Concentration −8.0 Molar) was 33%, the TGI (UACC-257) was greater than 1.00E−4 Molar and the GI50 (UACC-257; Homo sapiens) was 1.09 µM. The CC50 (UACC-257; [1]) was greater than 100 µM, the “Mean Optical Densities” value (UACC-257; Log10 Concentration −4.0 Molar) was 1.165 and the “Percent Growth” value (UACC-257; Log10 Concentration −4.0 Molar) was 12%. For the same compound, the “Mean Optical Densities” value (UACC-257; Log10 Concentration −5.0 Molar) was 1.270, the “Percent Growth” value (UACC-257; Log10 Concentration −5.0 Molar) was 23% and the “Mean Optical Densities” value (UACC-257; Log10 Concentration −6.0 Molar) was 1.558. For the same compound, the “Percent Growth” value (UACC-257; Log10 Concentration −6.0 Molar) was 51%, the “Mean Optical Densities” value (UACC-257; Log10 Concentration −7.0 Molar) was 1.565 and the “Percent Growth” value (UACC-257; Log10 Concentration −7.0 Molar) was 52%. The “Mean Optical Densities” value (UACC-257; Log10 Concentration −8.0 Molar) was 1.673, the “Percent Growth” value (UACC-257; Log10 Concentration −8.0 Molar) was 62% and the TGI (UACC-62) was greater than 1.00E−4 Molar. The GI50 (UACC-62; Homo sapiens) was 4.47 µM, the CC50 (UACC-62; [1]) was greater than 100 µM and the “Mean Optical Densities” value (UACC-62; Log10 Concentration −4.0 Molar) was 0.573. The “Percent Growth” value (UACC-62; Log10 Concentration −4.0 Molar) was 16%, the “Mean Optical Densities” value (UACC-62; Log10 Concentration −5.0 Molar) was 0.697 and the “Percent Growth” value (UACC-62; Log10 Concentration −5.0 Molar) was 35%. The “Mean Optical Densities” value (UACC-62; Log10 Concentration −6.0 Molar) was 0.971, the “Percent Growth” value (UACC-62; Log10 Concentration −6.0 Molar) was 78% and the “Mean Optical Densities” value (UACC-62; Log10 Concentration −7.0 Molar) was 1.072. The “Percent Growth” value (UACC-62; Log10 Concentration −7.0 Molar) was 93%, the “Mean Optical Densities” value (UACC-62; Log10 Concentration −8.0 Molar) was 1.038 and the “Percent Growth” value (UACC-62; Log10 Concentration −8.0 Molar) was 88%. It also gave a TGI (786-0) greater than 1.00E−4 Molar, a GI50 (786-0; Homo sapiens) of 7.74 µM and a CC50 (786-0; [1]) greater than 100 µM. For the same compound, the “Mean Optical Densities” value (786-0; Log10 Concentration −4.0 Molar) was 0.806, the “Percent Growth” value (786-0; Log10 Concentration −4.0 Molar) was 38% and the “Mean Optical Densities” value (786-0; Log10 Concentration −5.0 Molar) was 0.888. The “Percent Growth” value (786-0; Log10 Concentration −5.0 Molar) was 46%, the “Mean Optical Densities” value (786-0; Log10 Concentration −6.0 Molar) was 1.309 and the “Percent Growth” value (786-0; Log10 Concentration −6.0 Molar) was 84%. For the same compound, the “Mean Optical Densities” value (786-0; Log10 Concentration −7.0 Molar) was 1.361, the “Percent Growth” value (786-0; Log10 Concentration −7.0 Molar) was 89% and the “Mean Optical Densities” value (786-0; Log10 Concentration −8.0 Molar) was 1.398. The “Percent Growth” value (786-0; Log10 Concentration −8.0 Molar) was 92%, the TGI (ACHN) was 5.02E−5 Molar and the GI50 (ACHN; Homo sapiens) was 1.82 µM. The CC50 (ACHN; [1]) was greater than 100 µM, the “Mean Optical Densities” value (ACHN; Log10 Concentration −4.0 Molar) was 0.297 and the “Percent Growth” value (ACHN; Log10 Concentration −4.0 Molar) was −5%. The “Mean Optical Densities” value (ACHN; Log10 Concentration −5.0 Molar) was 0.351, the “Percent Growth” value (ACHN; Log10 Concentration −5.0 Molar) was 11% and the “Mean Optical Densities” value (ACHN; Log10 Concentration −6.0 Molar) was 0.554. The “Percent Growth” value (ACHN; Log10 Concentration −6.0 Molar) was 64%, the “Mean Optical Densities” value (ACHN; Log10 Concentration −7.0 Molar) was 0.644 and the “Percent Growth” value (ACHN; Log10 Concentration −7.0 Molar) was 88%. For the same compound, the “Mean Optical Densities” value (ACHN; Log10 Concentration −8.0 Molar) was 0.590, the “Percent Growth” value (ACHN; Log10 Concentration −8.0 Molar) was 73% and the TGI (RXF 393) was greater than 1.00E−4 Molar. For the same compound, the GI50 (RXF 393; Homo sapiens) was greater than 100 µM, the CC50 (RXF 393; [1]) was greater than 100 µM and the “Mean Optical Densities” value (RXF 393; Log10 Concentration −4.0 Molar) was 0.930. For the same compound, the “Percent Growth” value (RXF 393; Log10 Concentration −4.0 Molar) was 53%, the “Mean Optical Densities” value (RXF 393; Log10 Concentration −5.0 Molar) was 0.993 and the “Percent Growth” value (RXF 393; Log10 Concentration −5.0 Molar) was 62%. The “Mean Optical Densities” value (RXF 393; Log10 Concentration −6.0 Molar) was 1.170, the “Percent Growth” value (RXF 393; Log10 Concentration −6.0 Molar) was 85% and the “Mean Optical Densities” value (RXF 393; Log10 Concentration −7.0 Molar) was 1.267. For the same compound, the “Percent Growth” value (RXF 393; Log10 Concentration −7.0 Molar) was 98%, the “Mean Optical Densities” value (RXF 393; Log10 Concentration −8.0 Molar) was 1.226 and the “Percent Growth” value (RXF 393; Log10 Concentration −8.0 Molar) was 92%. The TGI (MDA-MB-435) was greater than 1.00E−4 Molar, the GI50 (MDA-MB-435; Homo sapiens) was 1.88 µM and the CC50 (MDA-MB-435; [1]) was greater than 100 µM. For the same compound, the “Mean Optical Densities” value (MDA-MB-435; Log10 Concentration −4.0 Molar) was 0.534, the “Percent Growth” value (MDA-MB-435; Log10 Concentration −4.0 Molar) was 1% and the “Mean Optical Densities” value (MDA-MB-435; Log10 Concentration −5.0 Molar) was 0.605. For the same compound, the “Percent Growth” value (MDA-MB-435; Log10 Concentration −5.0 Molar) was 10%, the “Mean Optical Densities” value (MDA-MB-435; Log10 Concentration −6.0 Molar) was 1.079 and the “Percent Growth” value (MDA-MB-435; Log10 Concentration −6.0 Molar) was 65%. The “Mean Optical Densities” value (MDA-MB-435; Log10 Concentration −7.0 Molar) was 1.179, the “Percent Growth” value (MDA-MB-435; Log10 Concentration −7.0 Molar) was 77% and the “Mean Optical Densities” value (MDA-MB-435; Log10 Concentration −8.0 Molar) was 1.122. For the same compound, the “Percent Growth” value (MDA-MB-435; Log10 Concentration −8.0 Molar) was 70% and the IC50 (HIF-1) was 0.003 µM.
